Experimental findings from PMC11475570, “Impact of Optimized Ku–DNA Binding Inhibitors on the Cellular and In Vivo DNA Damage Response” (Cancers, 2024) are described below.

The test system of series [1] is H460 NSCLC cells. The experiment in a line: Cellular uptake by HPLC. It is filed as in vitro ADME, Human. Conditions: H460, 10 µM. How it is done: Cellular uptake was evaluated in two NSCLC cell lines, H460 and A549. Cells were seeded into 6-well plates at a density of 1 × 10^6 cells per well and cultured as monolayers at 37 °C and 5% CO2 for 18–24 h. Ku-DBis were added to the media at a concentration of 10 µM and incubation continued for the times indicated. Media were removed, cells were washed 3 times with PBS, 1 mL of methanol was added to each well, and cells were agitated overnight at 4 °C. The methanol was collected, and wells were washed with an additional 1 mL of methanol that was then pooled with the original. The methanol extracts were then dried under vacuum, resuspended in methanol, and analyzed by HPLC using a 250 × 4.6 and 5 μm C-18 reverse phase column with 1% TFA mobile phase in acetonitrile (ACN) gradient elution. Absorption was monitored at 425 nm, HPLC peaks were quantified using a standard curve, and picomoles of compound per million cells was calculated.

Series [2] deals with T1, Ku70–Ku80 (Homo sapiens, UniProt P12956+P13010).
T1 construct: made in house; host or cells: baculovirus-infected Sf9 cells
The experiment in a line: Microscale thermophoresis (MST). Format: binding. Particulars: labeled Ku 5 nM, 5% DMSO, single-site fit. How it is done: Ku heterodimer was labeled using the Monolith NT™ Protein Labeling Kit RED-NHS (2nd generation amine reactive, NanoTemper Technologies GmbH, MO-L011, München, Germany), following the manufacturer’s protocol. Ku-DBi 3392 powder was resuspended in 100% DMSO, and the concentration was adjusted to 50 mM after UV absorbance measurement (absorbance at 417 nm with an extension coefficient equal to 15.2 mM^−1 cm^−1). The ligand stock solution was sonicated in an ultrasonic bath before preparations of the dilution series. The MST and Differential Scanning Fluorometry (DSF) assays contain 5% DMSO to fit the DMSO concentration at the highest ligand concentration (200 µM). The labeled protein (5 nM) was incubated with ligand 3392 ranging from 98 nM to 200 µM in a 12-point 1:1 dilution series. Protein–ligand solutions were incubated for 30 min at room temperature before MST measurements, which were performed in triplicate. Proteins were transferred to capillaries (Monolith NT. Automated Premium Capillary Chips), and binding was analyzed with a Monolith NT. Automated pico-RED device using MO. Control Software with nano-red excitation, LED light adjusted to 20% excitation power, and infrared laser (MST power) set to medium. The dissociation constants (KD) were determined with MO. […]

Series [3] deals with A549. In words: CCK-8 cell viability, single agent. Format: cell-based, Human. The method, then:
(§1) Cell metabolism/viability was assessed using a mitochondrial metabolism assay (CCK-8) kit (Cell Counting Kit-8, Cat: CK04, Dojindo Laboratories, Rockville, MD, USA) as previously described. Briefly, cells were seeded at a density of 3 × 10^3 cells per well in 96-well plates and allowed to adhere and stretch for 18–24 h prior to treatment. Cells were pre-treated with Ku-DBi for 24 h before bleomycin treatments. Subsequently, cells were incubated for an additional 48 h at 37 °C after which CCK-8 assay was performed. The absorbance of the formed formazan product in each well was measured at 450 nm and compared to vehicle-treated controls to determine percent cell viability. The results represent the average and SEM of triplicate determinations.

Series [4] deals with H460. In words: CCK-8 cell viability, single agent. It is filed as cell-based, Human. Conditions: for IC50: H460, CCK-8, 72 h, mean ± SD. How it is done:
as §1

The test system of series [5] is MDA-436. The experiment in a line: CCK-8 cell viability, single agent. It is filed as cell-based, Human. Conditions: Homo sapiens. How it is done:
as §1

Series [6] concerns H1299. In words: CCK-8 cell viability, single agent. It is filed as cell-based, Human. How it is done: as §1
For series [7], the system named is H23. The experiment in a line: CCK-8 cell viability, single agent. It is filed as cell-based, Human. Conditions: Homo sapiens. The method, then:
as §1

The subject of series [8] is MDA-468. The experiment in a line: CCK-8 cell viability, single agent. Conditions: Homo sapiens. It is filed as cell-based, Human. The method, then: as §1

T1 sequence (P12956 whole entry): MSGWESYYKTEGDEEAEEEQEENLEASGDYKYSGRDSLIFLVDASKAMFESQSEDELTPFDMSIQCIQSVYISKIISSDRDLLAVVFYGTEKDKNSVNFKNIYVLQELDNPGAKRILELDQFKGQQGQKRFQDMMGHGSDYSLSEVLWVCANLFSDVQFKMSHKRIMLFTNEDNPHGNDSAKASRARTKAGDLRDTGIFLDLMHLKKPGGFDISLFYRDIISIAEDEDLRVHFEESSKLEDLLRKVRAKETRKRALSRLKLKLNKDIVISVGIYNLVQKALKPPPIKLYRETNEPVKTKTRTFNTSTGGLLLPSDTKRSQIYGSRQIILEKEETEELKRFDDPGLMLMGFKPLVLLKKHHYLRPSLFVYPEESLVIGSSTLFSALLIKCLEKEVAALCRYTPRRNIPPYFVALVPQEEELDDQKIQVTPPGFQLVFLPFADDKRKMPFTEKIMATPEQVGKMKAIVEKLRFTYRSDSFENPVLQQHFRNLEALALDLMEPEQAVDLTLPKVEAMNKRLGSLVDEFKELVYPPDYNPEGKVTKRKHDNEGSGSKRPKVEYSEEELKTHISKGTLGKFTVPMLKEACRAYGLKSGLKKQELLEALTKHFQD
T1 sequence (P13010 whole entry): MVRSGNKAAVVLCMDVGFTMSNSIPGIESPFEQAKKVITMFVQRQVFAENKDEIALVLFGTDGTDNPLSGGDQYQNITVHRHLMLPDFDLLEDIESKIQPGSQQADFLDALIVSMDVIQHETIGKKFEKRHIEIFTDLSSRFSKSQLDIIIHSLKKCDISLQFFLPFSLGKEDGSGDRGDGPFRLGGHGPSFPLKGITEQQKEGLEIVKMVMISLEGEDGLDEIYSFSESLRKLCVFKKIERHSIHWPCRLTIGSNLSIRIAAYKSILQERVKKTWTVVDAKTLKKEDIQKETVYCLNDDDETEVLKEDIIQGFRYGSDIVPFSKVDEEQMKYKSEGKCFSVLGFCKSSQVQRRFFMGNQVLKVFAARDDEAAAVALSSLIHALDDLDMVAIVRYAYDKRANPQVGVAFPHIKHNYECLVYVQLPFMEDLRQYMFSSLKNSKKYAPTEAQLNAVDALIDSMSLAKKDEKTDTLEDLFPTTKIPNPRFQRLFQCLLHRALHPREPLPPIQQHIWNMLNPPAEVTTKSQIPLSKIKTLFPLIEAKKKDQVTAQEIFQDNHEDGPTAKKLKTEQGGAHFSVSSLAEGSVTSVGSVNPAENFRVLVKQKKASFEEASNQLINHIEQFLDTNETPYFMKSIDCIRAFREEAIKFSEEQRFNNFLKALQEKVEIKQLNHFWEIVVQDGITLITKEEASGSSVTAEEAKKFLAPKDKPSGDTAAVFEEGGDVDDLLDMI

The Kd is the equilibrium constant for the complex coming apart. Read a high Kd as weaker binding. Broadly, the viability is the share of living cells, or the viability signal relative to a control. A low value points to a greater loss of cells. As usually defined, the IC50 is the concentration that inhibits the measured activity by half. Turning to `COc1ccc(-c2ccc(/C=C3\C(=O)N(c4cccc(C(=O)O)c4)c4ccccc43)o2)cc1C(=O)Nc1cccc(OC(F)(F)F)c1` [GL-3392], in series [1], the “Uptake time course, initial rate and steady-state uptake” value is on record as “higher cellular levels than 3395”. The “Cellular uptake, fold more efficient than methoxy-derivatives 3395 and 3649” value in series [1] (media with 10% FBS) was ~ 3 fold. Also, in series [2], binding was characterised by a dissociation constant (Kd) of 2.1 ± 0.3 µM. Also, the “Cell viability at the highest concentrations assessed” value in series [3] (A549) is listed as about 50%; in series [6] (H1299) it was ~ 90%. Also, the viability at 25 µM in series [3] (Homo sapiens, A549, 25 µM) stood at 46.2 ± 3.8%; in series [4] (Homo sapiens, NCI-H460, H460, 25 µM), 12.3 ± 0.6%; in series [5] (MDA-436, 25 µM), 43.9 ± 2.6%; in series [6] (Homo sapiens, NCI-H1299, H1299, 25 µM) it was 89.9 ± 10.1%; in series [7] (NCI-H23, H23, 25 µM), 12.7 ± 0.7%; in series [8] (MDA-468, 25 µM), 29.4 ± 1.3%. Besides, the IC50 in series [3] (Homo sapiens, A549, CCK-8, 72 h, mean ± SD) was over 50 µM; in series [4] it was 7.7 ± 0.6 µM; in series [4] (Homo sapiens, NCI-H460, 72 h), about 8 µM; in series [5] (MDA-436, CCK-8, 72 h, mean ± SD), 22.2 ± 1.4 µM; in series [6] (Homo sapiens, NCI-H1299, H1299, CCK-8, 72 h, mean ± SD), over 50 µM; in series [7] (NCI-H23, 72 h, H23, CCK-8, 72 h, mean ± SD), about 8 µM. The compound further showed an IC50 in series [8] (MDA-468, CCK-8, 72 h, mean ± SD) of 10.4 ± 1.5 µM.
